Measured values: patent US20240287122A1, “NOVEL GALACTOSIDE INHIBITOR OF GALECTINS” (GALECTO BIOTECH AB, priority 2020, published 2024)

Columns and labels:
Galectin-3 = Galectin-3 (Homo sapiens, UniProt P17931); experiment: Fluorescence anisotropy assay, affinity for galectin-3; format: binding; details: compound as inhibitor of the interaction between galectin and a fluorescein tagged saccharide probe
Description: (§1) The affinity of Example 1-43 for galectins were determined by a fluorescence anisotropy assay where the compound was used as an inhibitor of the interaction between galectin and a fluorescein tagged saccharide probe as described Sörme, P., Kahl-Knutsson, B., Huflejt, M., Nilsson, U. J., and Leffler H. (2004) Fluorescence polarization as an analytical tool to evaluate galectin-ligand interactions. Anal. Biochem. 334: 36-47, (Sörme et al., 2004) and Monovalent interactions of Galectin-1 By Salomonsson, Emma; Larumbe, Amaia; Tejler, Johan; Tullberg, Erik; Rydberg, Hanna; Sundin, Anders; Khabut, Areej; Frejd, Torbjomn; Lobsanov, Yuri D.; Rini, James M.; et al, From Biochemistry (2010), 49(44), 9518-9532, (Salomonsson et al., 2010).

Galectin-1 = Galectin-1 (Homo sapiens, UniProt P09382); experiment: Fluorescence anisotropy assay, affinity for galectin-1; format: binding; details: compound as inhibitor of the interaction between galectin and a fluorescein tagged saccharide probe
Sequence of Galectin-1 (P09382 whole entry): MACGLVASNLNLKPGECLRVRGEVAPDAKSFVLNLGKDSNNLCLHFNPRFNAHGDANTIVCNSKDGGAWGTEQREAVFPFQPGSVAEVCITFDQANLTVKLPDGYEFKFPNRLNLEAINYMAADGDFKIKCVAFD
Description: as §1

Sequence of Galectin-3 (P17931 whole entry): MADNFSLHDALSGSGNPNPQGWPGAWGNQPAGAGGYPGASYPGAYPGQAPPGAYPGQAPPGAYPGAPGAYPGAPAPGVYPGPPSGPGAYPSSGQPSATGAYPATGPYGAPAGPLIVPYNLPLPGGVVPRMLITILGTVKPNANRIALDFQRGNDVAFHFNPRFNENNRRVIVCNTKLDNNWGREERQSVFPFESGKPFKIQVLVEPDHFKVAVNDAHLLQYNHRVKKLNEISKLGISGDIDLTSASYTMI

| Structure (SMILES) | Kd (Galectin-3) [nM] | Kd (Galectin-1) [nM] |
| --- | --- | --- |
| CCN(CC1CCC1)C(=O)c1ncc(Br)cc1S[C@H]1OC(CO)[C@H](O)C(n2cc(-n3ccc(Cl)n3)nn2)C1OC (stereo partly drawn) [Example 25, 5-Bromo-2-[N,N-(cyclobutylmethyl)ethylcarbamoyl}pyridin-3-yl 3-[4-(3-chloro-1H-1,2-pyrazol-1-yl)-1H-1,2,3-triazol-1-yl]-3-deoxy-2-O-methyl-1-thio-α-D-galactopyranoside] | 75 | 140 |
| COC1C(n2cc(-n3ccc(Cl)n3)nn2)[C@@H](O)C(CO)O[C@@H]1Sc1cc(Br)cnc1C(=O)N(CC1CCC1)C(C)C (stereo partly drawn) [Example 26, 5-Bromo-2-[N,N-(cyclobutylmethyl)isopropylcarbamoyl]pyridin-3-yl 3-[4-(3-chloro-1H-1,2-pyrazol-1-yl)-1H-1,2,3-triazol-1-yl]-3-deoxy-2-O-methyl-1-thio-α-D-galactopyranoside] | 110 | 160 |
| COC1C(n2cc(-n3ccc(Cl)n3)nn2)[C@@H](O)C(CO)O[C@@H]1Sc1cc(Br)cnc1C(=O)N(CC1CCC1)CC1CCC1 (stereo partly drawn) [Example 27, 5-Bromo-2-[N,N-bis(cyclobutylmethyl)carbamoyl]pyridin-3-yl 3-[4-(3-chloro-1H-1,2-pyrazol-1-yl)-1H-1,2,3-triazol-1-yl]-3-deoxy-2-O-methyl-1-thio-α-D-galactopyranoside] | 260 | 380 |
| COC1C(n2cc(-n3ccc(Cl)n3)nn2)[C@@H](O)C(CO)O[C@@H]1Sc1cc(Br)cnc1C(=O)N1CCCC1 (stereo partly drawn) [Example 28, 5-Bromo-2-(pyrrolidine-1-carbonyl)pyridin-3-yl 3-[4-(3-chloro-1H-1,2-pyrazol-1-yl)-1H-1,2,3-triazol-1-yl]-3-deoxy-2-O-methyl-1-thio-α-D-galactopyranoside] | 52 | 69 |
| CCN(CC(F)(F)F)C(=O)c1ncc(Br)cc1S[C@H]1OC(CO)[C@H](O)C(n2cc(-n3ccc(Cl)n3)nn2)C1OC (stereo partly drawn) [Example 29, 5-Bromo-2-[N,N-ethyl-(2,2,2-trifluoroethyl)carbamoyl]pyridin-3-yl 3-[4-(3-chloro-1H-1,2-pyrazol-1-yl)-1H-1,2,3-triazol-1-yl]-3-deoxy-2-O-methyl-1-thio-α-D-galactopyranoside] | 60 | 100 |
| CCN(CC(C)(C)F)C(=O)c1ncc(Br)cc1S[C@H]1OC(CO)[C@H](O)C(n2cc(-n3ccc(Cl)n3)nn2)C1OC (stereo partly drawn) [Example 30, 5-Bromo-2-[N,N-ethyl(2-fluoro-2-methylpropyl)carbamoyl]pyridin-3-yl 3-[4-(3-chloro-1H-1,2-pyrazol-1-yl)-1H-1,2,3-triazol-1-yl]-3-deoxy-2-O-methyl-1-thio-α-D-galactopyranoside] | 62 | 140 |
| COC1C(n2cc(-n3ccc(Cl)n3)nn2)[C@@H](O)C(CO)O[C@@H]1Sc1cc(Br)cnc1C(=O)N(CC1CC1)C(C)C (stereo partly drawn) [Example 31, 5-Bromo-2-[N,N-(cyclopropylmethyl)isopropylcarbamoyl]pyridin-3-yl 3-[4-(3-chloro-1H-1,2-pyrazol-1-yl)-1H-1,2,3-triazol-1-yl]-3-deoxy-2-O-methyl-1-thio-α-D-galactopyranoside] | 60 | 72 |
| COC1C(n2cc(-n3ccc(Cl)n3)nn2)[C@@H](O)C(CO)O[C@@H]1Sc1cc(Br)cnc1C(=O)N(CC(C)C)C(C)C (stereo partly drawn) [Example 32, 5-Bromo-2-(N,N-isobutylisopropylcarbamoyl)pyridin-3-yl 3-[4-(3-chloro-1H-1,2-pyrazol-1-yl)-1H-1,2,3-triazol-1-yl]-3-deoxy-2-O-methyl-1-thio-α-D-galactopyranoside] | 63 | 110 |
| COC1C(n2cc(-n3ccc(Cl)n3)nn2)[C@@H](O)C(CO)O[C@@H]1Sc1cc(Br)cnc1C(=O)N(CC1CC1)OC (stereo partly drawn) [Example 33, 5-Bromo-2-[N,N-(cyclopropylmethyl)methoxycarbamoyl]pyridin-3-yl 3-[4-(3-chloro-1H-1,2-pyrazol-1-yl)-1H-1,2,3-triazol-1-yl]-3-deoxy-2-O-methyl-1-thio-α-D-galactopyranoside] | 68 | 74 |
| CNC(=O)c1ncc(Br)cc1S[C@H]1OC(CO)[C@H](O)C(n2cc(-n3ccc(Cl)n3)nn2)C1OC (stereo partly drawn) [Example 34, 5-Bromo-2-(N-methylcarbamoyl)pyridin-3-yl 3-[4-(3-chloro-1H-1,2-pyrazol-1-yl)-1H-1,2,3-triazol-1-yl]-3-deoxy-2-O-methyl-1-thio-α-D-galactopyranoside] | 140 | 63 |
| CCNC(=O)c1ncc(Br)cc1S[C@H]1OC(CO)[C@H](O)[C@H](n2cc(-n3ccc(Cl)n3)nn2)C1OC (stereo partly drawn) [Example 35, 5-Bromo-2-(N-ethylcarbamoyl)pyridin-3-yl 3-[4-(3-chloro-1H-1,2-pyrazol-1-yl)-1H-1,2,3-triazol-1-yl]-3-deoxy-2-O-methyl-1-thio-α-D-galactopyranoside] | 140 | 63 |
| CCCCNC(=O)c1ncc(Br)cc1S[C@H]1OC(CO)[C@H](O)[C@H](n2cc(-n3ccc(Cl)n3)nn2)C1OC (stereo partly drawn) [Example 36, 5-Bromo-2-(N-butylcarbamoyl)pyridin-3-yl 3-[4-(3-chloro-1H-1,2-pyrazol-1-yl)-1H-1,2,3-triazol-1-yl]-3-deoxy-2-O-methyl-1-thio-α-D-galactopyranoside] | 140 | 110 |
| COC1[C@@H](Sc2cc(Br)cnc2C(=O)NCC(C)C)OC(CO)[C@H](O)[C@@H]1n1cc(-n2ccc(Cl)n2)nn1 (stereo partly drawn) [Example 37, 5-Bromo-2-(N-isobutylcarbamoyl)pyridin-3-yl 3-[4-(3-chloro-1H-1,2-pyrazol-1-yl)-1H-1,2,3-triazol-1-yl]-3-deoxy-2-O-methyl-1-thio-α-D-galactopyranoside] | 110 | 92 |
| COC1[C@@H](Sc2cc(Br)cnc2C(=O)NCCF)OC(CO)[C@H](O)[C@@H]1n1cc(-n2ccc(Cl)n2)nn1 (stereo partly drawn) [Example 38, 5-Bromo-2-[N-(2-fluoroethyl)carbamoyl]pyridin-3-yl 3-[4-(3-chloro-1H-1,2-pyrazol-1-yl)-1H-1,2,3-triazol-1-yl]-3-deoxy-2-O-methyl-1-thio-α-D-galactopyranoside] | 180 | 80 |
| COC1[C@@H](Sc2cc(Br)cnc2C(=O)NC23CC(C2)C3)OC(CO)[C@H](O)[C@@H]1n1cc(-n2ccc(Cl)n2)nn1 (stereo partly drawn) [Example 39, 5-Bromo-2-(N-bicyclo[1.1.1]pentan-1-ylcarbamoyl)pyridin-3-yl 3-[4-(3-chloro-1H-1,2-pyrazol-1-yl)-1H-1,2,3-triazol-1-yl]-3-deoxy-2-O-methyl-1-thio-α-D-galactopyranoside] | 180 | 64 |
| COC1[C@@H](Sc2cc(Br)cnc2C(=O)NC2CCC2)OC(CO)[C@H](O)[C@@H]1n1cc(-n2ccc(Cl)n2)nn1 (stereo partly drawn) [Example 40, 5-Bromo-2-(N-cyclobutylcarbamoyl)pyridin-3-yl 3-[4-(3-chloro-1H-1,2-pyrazol-1-yl)-1H-1,2,3-triazol-1-yl]-3-deoxy-2-O-methyl-1-thio-α-D-galactopyranoside] | 160 | 82 |
| COC1[C@@H](Sc2cc(Br)cnc2C(=O)NC2CC2)OC(CO)[C@H](O)[C@@H]1n1cc(-n2ccc(Cl)n2)nn1 (stereo partly drawn) [Example 41, 5-Bromo-2-(N-cyclopropylcarbamoyl)pyridin-3-yl 3-[4-(3-chloro-1H-1,2-pyrazol-1-yl)-1H-1,2,3-triazol-1-yl]-3-deoxy-2-O-methyl-1-thio-α-D-galactopyranoside] | 160 | 73 |
| COC1C(n2cc(-n3cc(Cl)c(Cl)n3)nn2)[C@@H](O)C(CO)O[C@@H]1Sc1cc(Br)cnc1C#N (stereo partly drawn) [Example 42, 5-Bromo-2-cyanopyridin-3-yl 3-[4-(3,4-dichloro-1H-1,2-pyrazol-1-yl)-1H-1,2,3-triazol-1-yl]-3-deoxy-2-O-methyl-1-thio-α-D-galactopyranoside] | 30 | 290 |
| COC1C(n2cc(-n3cc(F)c(Cl)n3)nn2)[C@@H](O)C(CO)O[C@@H]1Sc1cc(Br)cnc1C#N (stereo partly drawn) [Example 43, 5-Bromo-2-cyanopyridin-3-yl 3-[4-(3-chloro-4-fluoro-1H-1,2-pyrazol-1-yl)-1H-1,2,3-triazol-1-yl]-3-deoxy-2-O-methyl-1-thio-α-D-galactopyranoside] | 140 | 270 |
